For data set [1], the target named is T1, Histone-lysine N-methyltransferase EHMT2 (Homo sapiens, UniProt Q96KQ7).
T1 sequence (Q96KQ7 whole entry): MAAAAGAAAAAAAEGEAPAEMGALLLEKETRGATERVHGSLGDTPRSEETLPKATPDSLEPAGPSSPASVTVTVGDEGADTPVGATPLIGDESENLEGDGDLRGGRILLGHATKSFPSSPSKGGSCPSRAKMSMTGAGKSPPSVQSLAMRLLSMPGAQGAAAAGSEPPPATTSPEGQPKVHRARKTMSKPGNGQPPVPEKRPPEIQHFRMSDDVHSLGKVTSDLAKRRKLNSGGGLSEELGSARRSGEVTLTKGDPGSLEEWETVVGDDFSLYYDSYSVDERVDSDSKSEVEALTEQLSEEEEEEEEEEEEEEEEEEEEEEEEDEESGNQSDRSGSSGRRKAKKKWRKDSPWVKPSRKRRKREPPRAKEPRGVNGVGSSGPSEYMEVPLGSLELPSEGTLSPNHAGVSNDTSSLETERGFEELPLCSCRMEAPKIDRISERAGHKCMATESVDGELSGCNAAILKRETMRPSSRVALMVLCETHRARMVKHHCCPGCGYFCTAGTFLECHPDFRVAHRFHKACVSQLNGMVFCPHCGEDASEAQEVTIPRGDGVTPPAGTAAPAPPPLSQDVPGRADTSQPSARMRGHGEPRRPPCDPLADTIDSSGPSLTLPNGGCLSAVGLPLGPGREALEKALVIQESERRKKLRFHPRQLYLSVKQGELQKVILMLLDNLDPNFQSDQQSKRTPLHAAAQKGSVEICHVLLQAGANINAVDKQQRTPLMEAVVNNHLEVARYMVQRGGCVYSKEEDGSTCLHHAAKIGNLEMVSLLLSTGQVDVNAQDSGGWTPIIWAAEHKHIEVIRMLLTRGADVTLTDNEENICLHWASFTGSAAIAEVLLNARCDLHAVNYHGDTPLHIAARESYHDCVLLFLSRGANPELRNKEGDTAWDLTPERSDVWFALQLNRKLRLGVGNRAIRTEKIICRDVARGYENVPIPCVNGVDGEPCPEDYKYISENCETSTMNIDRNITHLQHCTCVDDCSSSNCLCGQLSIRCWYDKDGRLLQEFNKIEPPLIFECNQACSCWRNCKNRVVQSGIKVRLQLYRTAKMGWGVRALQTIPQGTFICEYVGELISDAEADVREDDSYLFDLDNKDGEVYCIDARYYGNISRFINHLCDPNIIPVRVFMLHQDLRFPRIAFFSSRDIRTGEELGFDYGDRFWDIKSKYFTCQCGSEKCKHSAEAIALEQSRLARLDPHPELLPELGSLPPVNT
Nature of the data set: Inhibition G9a (unknown origin).

The target of data set [2] is T2, Histone-lysine N-methyltransferase EHMT1 (Homo sapiens, UniProt Q9H9B1).
T2 sequence (Q9H9B1 whole entry): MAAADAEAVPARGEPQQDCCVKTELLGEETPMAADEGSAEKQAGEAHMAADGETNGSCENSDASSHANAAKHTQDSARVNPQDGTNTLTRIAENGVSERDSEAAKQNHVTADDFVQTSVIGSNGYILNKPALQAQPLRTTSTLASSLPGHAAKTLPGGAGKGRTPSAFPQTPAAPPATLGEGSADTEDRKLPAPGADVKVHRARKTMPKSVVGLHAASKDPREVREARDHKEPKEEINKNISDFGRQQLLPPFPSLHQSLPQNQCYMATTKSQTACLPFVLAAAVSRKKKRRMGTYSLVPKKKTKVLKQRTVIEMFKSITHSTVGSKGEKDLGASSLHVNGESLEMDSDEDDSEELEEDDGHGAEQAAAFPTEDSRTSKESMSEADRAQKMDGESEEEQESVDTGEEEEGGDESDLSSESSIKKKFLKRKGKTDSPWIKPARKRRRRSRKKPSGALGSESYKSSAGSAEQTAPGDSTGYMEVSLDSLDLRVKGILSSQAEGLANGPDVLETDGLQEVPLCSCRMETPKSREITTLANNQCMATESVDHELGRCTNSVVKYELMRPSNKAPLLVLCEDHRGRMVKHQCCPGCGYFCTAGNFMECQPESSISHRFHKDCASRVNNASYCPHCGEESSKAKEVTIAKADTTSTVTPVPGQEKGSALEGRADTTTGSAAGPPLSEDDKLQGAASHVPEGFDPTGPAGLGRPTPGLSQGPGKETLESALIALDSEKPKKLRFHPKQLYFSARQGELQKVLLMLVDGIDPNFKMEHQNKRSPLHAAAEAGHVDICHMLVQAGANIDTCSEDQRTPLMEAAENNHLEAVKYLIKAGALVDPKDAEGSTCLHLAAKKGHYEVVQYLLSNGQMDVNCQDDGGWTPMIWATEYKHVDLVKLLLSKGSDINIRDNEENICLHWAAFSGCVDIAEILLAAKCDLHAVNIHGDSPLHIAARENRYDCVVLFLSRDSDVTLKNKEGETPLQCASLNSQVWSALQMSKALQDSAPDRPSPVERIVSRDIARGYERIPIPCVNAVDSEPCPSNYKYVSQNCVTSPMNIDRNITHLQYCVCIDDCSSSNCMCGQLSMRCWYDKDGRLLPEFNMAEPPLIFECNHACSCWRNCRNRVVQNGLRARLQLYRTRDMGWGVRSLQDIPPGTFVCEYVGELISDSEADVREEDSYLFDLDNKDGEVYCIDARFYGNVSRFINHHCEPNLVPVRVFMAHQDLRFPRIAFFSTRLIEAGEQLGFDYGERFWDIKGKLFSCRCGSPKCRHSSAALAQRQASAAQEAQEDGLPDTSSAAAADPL
Nature of the data set: Inhibition of GLP (unknown origin).

Data set [3] can be described thus: Lipophilicity, log D of compound. The format is physicochemical. Particulars: octanol/water.
The nature of data set [4]: Metabolic stability in mouse liver microsomes assessed as compound remaining at 0.5 mg/mL incubated for 0.5 hrs. The data set is classed as ADME, Microsome. The note with it: read-out: Stabilty.
The target in data set [5] is CYP2C9 (Homo sapiens, UniProt P11712). The experiment in a line: Inhibition of CYP2C9 (unknown origin) at 10 uM relative to control. The format is ADME.
Data set [6] concerns the target CYP2C19 (Homo sapiens, UniProt P33261). The experiment in a line: Inhibition of CYP2C19 (unknown origin) at 10 uM relative to control. The data set is classed as ADME.
The target in data set [7] is CYP2D6 (Homo sapiens, UniProt P10635). Nature of the data set: Inhibition of CYP2D6 (unknown origin) at 10 uM relative to control. The format is ADME.
Data set [8] concerns the target hERG (KCNH2) (Homo sapiens, UniProt Q12809). The experiment in a line: Inhibition of human ERG at 10 uM relative to control.
Data set [9] in a line: Tmax in mouse at 10 mg/kg, po. The data set is classed as ADME, organism-based. Particulars: in vivo.
A short description of data set [10]: AUC (0 to infinity) in mouse at 1 mg/kg, iv. The data set is classed as ADME, organism-based. Further details: time infinity, route intravenous, dose 1 mg/kg. The note with it: in vivo.
A short description of data set [11]: Half-life in mouse at 1 mg/kg, iv. The format is ADME, organism-based. Particulars: in vivo.
Data set [12] can be described thus: Volume of distribution at steady state in mouse at 1 mg/kg, iv. The data set is classed as ADME, organism-based. Particulars: in vivo, read-out: Vdss.
Data set [13] in a line: Intrinsic clearance in mouse at 1 mg/kg, iv. The data set is classed as ADME, organism-based. The note with it: in vivo.

CYP2D6, sequence (P10635 whole entry): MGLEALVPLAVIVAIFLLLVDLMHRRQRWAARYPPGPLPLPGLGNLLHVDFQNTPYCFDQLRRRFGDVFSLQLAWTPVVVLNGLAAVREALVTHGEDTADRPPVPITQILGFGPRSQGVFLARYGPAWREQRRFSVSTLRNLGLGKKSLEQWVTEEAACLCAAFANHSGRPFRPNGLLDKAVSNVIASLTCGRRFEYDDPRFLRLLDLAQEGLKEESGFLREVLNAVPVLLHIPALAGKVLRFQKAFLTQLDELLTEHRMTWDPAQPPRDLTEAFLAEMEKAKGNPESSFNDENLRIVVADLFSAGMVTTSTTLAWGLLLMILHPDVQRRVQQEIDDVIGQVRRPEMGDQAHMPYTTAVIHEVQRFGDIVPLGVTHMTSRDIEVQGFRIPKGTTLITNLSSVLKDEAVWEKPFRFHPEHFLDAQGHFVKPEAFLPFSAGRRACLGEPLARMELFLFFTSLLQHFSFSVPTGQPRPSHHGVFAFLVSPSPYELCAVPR
hERG (KCNH2), sequence (Q12809 whole entry): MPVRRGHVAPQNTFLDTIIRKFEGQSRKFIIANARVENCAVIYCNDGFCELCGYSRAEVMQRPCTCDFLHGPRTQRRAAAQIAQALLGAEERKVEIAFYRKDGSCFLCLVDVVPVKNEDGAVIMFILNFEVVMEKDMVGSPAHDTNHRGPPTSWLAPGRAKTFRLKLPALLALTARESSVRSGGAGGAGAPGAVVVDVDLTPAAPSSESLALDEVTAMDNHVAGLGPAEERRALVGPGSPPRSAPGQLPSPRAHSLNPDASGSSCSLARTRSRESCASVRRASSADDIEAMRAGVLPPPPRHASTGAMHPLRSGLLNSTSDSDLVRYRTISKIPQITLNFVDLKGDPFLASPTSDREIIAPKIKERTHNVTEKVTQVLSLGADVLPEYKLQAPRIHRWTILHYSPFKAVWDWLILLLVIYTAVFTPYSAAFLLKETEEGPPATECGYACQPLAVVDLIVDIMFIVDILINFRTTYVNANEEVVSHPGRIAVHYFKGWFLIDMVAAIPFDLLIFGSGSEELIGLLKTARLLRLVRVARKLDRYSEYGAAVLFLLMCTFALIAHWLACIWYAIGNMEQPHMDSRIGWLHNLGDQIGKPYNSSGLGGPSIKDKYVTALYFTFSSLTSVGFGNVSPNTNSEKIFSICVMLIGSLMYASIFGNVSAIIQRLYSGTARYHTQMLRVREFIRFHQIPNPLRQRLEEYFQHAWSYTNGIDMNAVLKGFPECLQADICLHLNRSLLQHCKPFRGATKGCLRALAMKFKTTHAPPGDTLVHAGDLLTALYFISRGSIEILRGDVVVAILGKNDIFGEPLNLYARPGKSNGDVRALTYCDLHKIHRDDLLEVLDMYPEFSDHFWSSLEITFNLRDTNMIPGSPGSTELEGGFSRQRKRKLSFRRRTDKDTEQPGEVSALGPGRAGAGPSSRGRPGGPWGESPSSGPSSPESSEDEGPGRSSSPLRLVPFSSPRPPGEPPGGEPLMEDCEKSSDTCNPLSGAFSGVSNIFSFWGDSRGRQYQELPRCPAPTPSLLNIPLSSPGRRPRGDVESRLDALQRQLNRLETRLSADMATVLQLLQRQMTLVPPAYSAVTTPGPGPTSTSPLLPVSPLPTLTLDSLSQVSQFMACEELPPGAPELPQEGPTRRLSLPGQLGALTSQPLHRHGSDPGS
CYP2C9, sequence (P11712 whole entry): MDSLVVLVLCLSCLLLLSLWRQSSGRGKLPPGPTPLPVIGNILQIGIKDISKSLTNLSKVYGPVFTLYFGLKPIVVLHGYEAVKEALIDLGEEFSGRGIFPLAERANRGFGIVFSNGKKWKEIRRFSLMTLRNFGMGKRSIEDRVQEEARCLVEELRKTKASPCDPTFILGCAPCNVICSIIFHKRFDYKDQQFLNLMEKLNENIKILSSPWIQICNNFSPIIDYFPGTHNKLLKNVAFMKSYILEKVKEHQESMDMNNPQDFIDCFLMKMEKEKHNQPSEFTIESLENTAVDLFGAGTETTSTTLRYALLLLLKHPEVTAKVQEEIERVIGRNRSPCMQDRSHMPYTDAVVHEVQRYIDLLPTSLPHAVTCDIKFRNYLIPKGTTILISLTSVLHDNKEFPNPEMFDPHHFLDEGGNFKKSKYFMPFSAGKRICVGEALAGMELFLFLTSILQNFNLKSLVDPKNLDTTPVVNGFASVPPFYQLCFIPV
CYP2C19, sequence (P33261 whole entry): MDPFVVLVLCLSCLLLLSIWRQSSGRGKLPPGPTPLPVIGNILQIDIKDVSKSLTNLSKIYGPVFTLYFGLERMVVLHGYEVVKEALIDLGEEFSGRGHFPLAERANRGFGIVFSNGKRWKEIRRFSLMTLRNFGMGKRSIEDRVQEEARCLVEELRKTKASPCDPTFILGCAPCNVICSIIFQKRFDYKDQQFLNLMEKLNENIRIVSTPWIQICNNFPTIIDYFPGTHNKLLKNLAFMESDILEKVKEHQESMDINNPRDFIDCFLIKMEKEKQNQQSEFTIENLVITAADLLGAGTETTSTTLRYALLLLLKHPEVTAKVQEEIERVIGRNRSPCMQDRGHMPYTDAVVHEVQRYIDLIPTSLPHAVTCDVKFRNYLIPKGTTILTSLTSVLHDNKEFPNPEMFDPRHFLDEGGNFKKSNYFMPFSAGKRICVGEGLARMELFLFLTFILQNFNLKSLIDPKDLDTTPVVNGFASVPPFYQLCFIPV

A word on the IC50: it is the concentration that inhibits the measured activity by half. A low value points to greater potency in that assay. By logD is commonly meant the decadic logarithm of the distribution of all forms, ionised or not, between an organic phase and buffer at a given pH. Higher therefore signals a more lipophilic compound. As a reminder, the inhibition is the relative decrease from the control value, in per cent. A high value points to strong suppression. The Tmax is the time from dosing to the highest level. The AUC(0-inf) is the area under the concentration-time curve extrapolated to infinity. The low end stands for low exposure, the high end for high exposure. Usually half-life stands for the time in which the quantity being followed falls by half. In the case of `CNc1cc(C)nc(Nc2ccc(OC)c(C3=CCNCCC3)c2)n1`, the 50% inhibitory concentration (IC50) in data set [1] stood at 4.31 nM; in data set [2] it was 32.3 nM. For the same compound, the log distribution coefficient (logD) in data set [3] came to 0.5. Further, the remaining at 0.5 h in data set [4] came to 34%. Also, the inhibition at 10 µM was found to be 0% in data set [5], 9% in [6], 3% in data set [7] and 1% in data set [8]. In [9], the Tmax turned out to be 2 h. The compound also displayed an area under the curve AUC(0-inf) in data set [10] of 0.79 µM·h. The compound also gave a half-life in data set [11] of 7 h. Moreover, the Vd in data set [12] is 24.6 L/kg. In addition, the CL in [13] worked out at 62.9 mL/min/kg.
Turning to `CNc1cc(C)nc(Nc2ccc(OC)c(OCCCN3CCCC3)c2)n1`, the IC50 in [1] amounted to 16.9 nM; in data set [2], 185 nM. Further, the logD in data set [3] worked out at 0.8. Besides, in data set [4], the remaining at 0.5 h was 48%. Further, the inhibition at 10 µM was found to be 0% in [5], 3% in data set [6], 8% in [7] and 42% in [8]. Further, the Tmax in data set [9] amounted to 5.5 h. Further, the AUC(0-inf) in data set [10] came out at 1.71 µM·h. The half-life in data set [11] was 4 h. In addition, the Vd in [12] is 8.3 L/kg. Also, the CL in data set [13] was found to be 27.4 mL/min/kg.

The values above are taken from ChEMBL document CHEMBL4725338, “Discovery of novel histone lysine methyltransferase G9a/GLP (EHMT2/1) inhibitors: Design, synthesis, and structure-activity relationships of 2,4-diamino-6-methylpyrimidines” (Bioorg Med Chem Lett, 2020).
